Laboratory results published in publication PMC12892976, “Alkylation-based optimization of antifungal FPPS inhibitors yields a potent, broad-spectrum lipophilic zoledronate derivative” (mBio, 2025).
Converted amounts (≈) assume the structure as drawn.

Columns and labels:
Cryptococcus gattii [1] = assay: MIC broth microdilution (CLSI); format: cell-based; conditions: Cryptococcus gattii PNG27
Description: (§1) Antifungal susceptibility was determined by broth microdilution according to the CLSI guidelines described in M27-Ed4 ([16]).

Candida parapsilosis = assay: MIC broth microdilution (CLSI); format: cell-based; conditions: Candida parapsilosis ATCC 22018
Description: Antifungal susceptibility was determined by broth microdilution according to the CLSI guidelines described in M27-Ed4 ([16]). […] MFC was determined by back-plating drug-treated cultures from MIC broths onto SDA plates. The MFC was defined as the lowest concentration from which no colonies could be cultured.

Aspergillus terreus [2] = assay: MIC broth microdilution (CLSI); format: cell-based; conditions: Aspergillus terreus 75-16-089-2500
Description: as §1

Cryptococcus gattii [3] = assay: checkerboard drug interaction (FICI, MICc); format: cell-based;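 also: simplified diagonal checkerboard screen pairing antifungals with FPPS inhibitors, FICI computed under the Loewe additivity model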
Description: (§2) Drug interactions between antifungals and FPPS inhibitors were investigated using a simplified checkerboard diagonal screening method ([45]). […] FICIs were determined according to the Loewe additivity model ([17]).

Cryptococcus tetragattii = assay: checkerboard drug interaction (FICI, MICc); format: cell-based;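 also: simplified diagonal checkerboard screen pairing antifungals with FPPS inhibitors, with FICI calculated under the Loewe additivity model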
Description: as §2

[4] = system: Cryptococcus deneoformans; assay: checkerboard drug interaction (FICI, MICc); format: cell-based;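 also: simplified diagonal checkerboard screen pairing antifungals with FPPS inhibitors, FICI calculated under the Loewe additivity model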
Description: as §2

Fusarium solani [5] = assay: checkerboard drug interaction (FICI, MICc); format: cell-based;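 also: simplified diagonal checkerboard screen pairing antifungals with FPPS inhibitors, FICI derived under the Loewe additivity model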
Description: as §2

Pichia kudriavzevii = assay: checkerboard drug interaction (FICI, MICc); format: cell-based;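 also: antifungal plus FPPS inhibitor interactions tested in a simplified diagonal checkerboard screen, with FICI calculated under the Loewe additivity model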
Description: as §2

Candida tropicalis = assay: checkerboard drug interaction (FICI, MICc); format: cell-based;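 also: simplified diagonal checkerboard screen of antifungal plus FPPS inhibitor combinations, with FICI computed by the Loewe additivity model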
Description: as §2

Candida dubliniensis = assay: checkerboard drug interaction (FICI, MICc); format: cell-based;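 also: simplified diagonal checkerboard screen pairing antifungals with FPPS inhibitors, FICI calculated under the Loewe additivity model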
Description: as §2

Aspergillus niger [6] = assay: checkerboard drug interaction (FICI, MICc); format: cell-based;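 also: simplified diagonal checkerboard screen pairing antifungals with FPPS inhibitors, FICI calculated under the Loewe additivity model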
Description: as §2

Aspergillus terreus [7] = assay: checkerboard drug interaction (FICI, MICc); format: cell-based;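 also: simplified diagonal checkerboard screen pairing antifungals with FPPS inhibitors, FICI derived by the Loewe additivity model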
Description: as §2

Aspergillus lentulus [8] = assay: checkerboard drug interaction (FICI, MICc); format: cell-based;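 also: simplified diagonal checkerboard screen pairing antifungals with FPPS inhibitors, with the interaction index calculated under the Loewe additivity model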
Description: as §2

Microsporum canis = assay: checkerboard drug interaction (FICI, MICc); format: cell-based;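 also: simplified diagonal checkerboard screen pairing antifungals with FPPS inhibitors, FICI calculated under the Loewe additivity model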
Description: as §2

Nannizzia nana = assay: checkerboard drug interaction (FICI, MICc); format: cell-based
Description: as §2

Trichophyton tonsurans [9] = assay: checkerboard drug interaction (FICI, MICc); format: cell-based;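 also: simplified diagonal checkerboard screen combining antifungals with FPPS inhibitors, with FICI calculated under the Loewe additivity model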
Description: as §2

Trichophyton soudanense = assay: checkerboard drug interaction (FICI, MICc); format: cell-based;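 also: simplified diagonal checkerboard screen pairing antifungals with FPPS inhibitors, FICI computed under the Loewe additivity model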
Description: as §2

Lomentospora prolificans [10] = assay: checkerboard drug interaction (FICI, MICc)
Description: as §2

[11] = system: Aspergillus frankstonensis; assay: checkerboard drug interaction (FICI, MICc);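 also: simplified diagonal checkerboard screen pairing antifungals with FPPS inhibitors, FICI calculated using the Loewe additivity model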
Description: as §2

Epidermophyton floccosum [12] = assay: checkerboard drug interaction (FICI, MICc)
Description: as §2

Nannizzia gypsea = assay: checkerboard drug interaction (FICI, MICc);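 also: simplified diagonal checkerboard screen pairing antifungals with FPPS inhibitors, FICI derived using the Loewe additivity model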
Description: as §2

Mucor circinelloides = assay: MIC broth microdilution (CLSI); format: cell-based; conditions: Mucor circinelloides 80-14-240-5007
Description: as §1

Rhizopus oryzae = assay: MIC broth microdilution (CLSI); format: cell-based; conditions: Rhizopus oryzae 04-14-364-1703
Description: as §1

Fusarium oxysporum = assay: MIC broth microdilution (CLSI); format: cell-based; conditions: Fusarium oxysporum 07-200-3012
Description: as §1

Lomentospora prolificans [13] = assay: MIC broth microdilution (CLSI); format: cell-based; conditions: Lomentospora prolificans 80-16-101-2445
Description: as §1

Aspergillus niger [14] = assay: MIC broth microdilution (CLSI); format: cell-based; conditions: Aspergillus niger 111
Description: as §1

Aspergillus lentulus [15] = assay: MIC broth microdilution (CLSI); format: cell-based; conditions: Aspergillus lentulus DTO 341-G7
Description: as §1

Aspergillus felis = assay: MIC broth microdilution (CLSI); format: cell-based; conditions: Aspergillus felis IHE87256683D6
Description: as §1

Aspergillus parafelis = assay: MIC broth microdilution (CLSI); format: cell-based; conditions: Aspergillus parafelis DTO 341-F2
Description: as §1

[16] = system: Aspergillus frankstonensis; assay: MIC broth microdilution (CLSI); format: cell-based; conditions: Aspergillus frankstonensis DTO 341-F3
Description: as §1

Epidermophyton floccosum [17] = assay: MIC broth microdilution (CLSI); format: cell-based; conditions: Epidermophyon floccosum R-113
Description: as §1

Paraphyton cookei = assay: MIC broth microdilution (CLSI); format: cell-based; conditions: Paraphyton cookei R-639
Description: as §1

Fusarium solani [18] = assay: MIC broth microdilution (CLSI); conditions: Fusarium solani 04-16-056-1862
Description: as §1

Trichophyton tonsurans [19] = assay: MIC broth microdilution (CLSI); conditions: Trichophyton tonsurans R-168
Description: as §1

OC(Cn1cncn1)(Cn1cncn1)c1ccc(F)cc1F [FLC, fluconazole]
MIC / MEC (Cryptococcus gattii [1]): 2 µg/mL (≈ 6.53 µM) | MIC / MEC (Candida parapsilosis): 2 µg/mL (≈ 6.53 µM) | MIC / MEC (Aspergillus terreus [2]): 64 µg/mL (≈ 209 µM) | antifungal MICc (Cryptococcus gattii [3]; in combination with 10-ZOL): 1 | antifungal MICc (Cryptococcus gattii [3]; in combination with ZOL): 0.25 | antifungal MICc (Cryptococcus tetragattii; in combination with 10-ZOL): 2 | antifungal MICc (Cryptococcus tetragattii; in combination with ZOL): 1 | antifungal MICc ([4]; in combination with 10-ZOL): 0.25 | antifungal MICc ([4]; in combination with ZOL): 0.125 | antifungal MICc (Fusarium solani [5]; in combination with 10-ZOL): 64 | antifungal MICc (Fusarium solani [5]; in combination with ZOL): 32 | antifungal MICc (Pichia kudriavzevii; in combination with 10-ZOL): 16 | antifungal MICc (Pichia kudriavzevii; in combination with ZOL): 8 | antifungal MICc (Candida tropicalis; in combination with 10-ZOL): 1 | antifungal MICc (Candida tropicalis; in combination with ZOL): 2 | antifungal MICc (Candida dubliniensis; in combination with 10-ZOL): 0.125 | antifungal MICc (Candida dubliniensis; in combination with ZOL): 0.03125 | antifungal MICc (Aspergillus niger [6]; in combination with 10-ZOL): 64 | antifungal MICc (Aspergillus terreus [7]; in combination with 10-ZOL): 2 | antifungal MICc (Aspergillus terreus [7]; in combination with ZOL): 8 | antifungal MICc (Aspergillus lentulus [8]; in combination with 10-ZOL): 4 | antifungal MICc (Aspergillus lentulus [8]; in combination with ZOL): 64 | antifungal MICc (Microsporum canis; in combination with 10-ZOL): 64 | antifungal MICc (Microsporum canis; in combination with ZOL): 32 | antifungal MICc (Nannizzia nana; in combination with 10-ZOL): 32 | antifungal MICc (Nannizzia nana; in combination with ZOL): 8 | antifungal MICc (Trichophyton tonsurans [9]; in combination with 10-ZOL): 2 | antifungal MICc (Trichophyton tonsurans [9]; in combination with ZOL): 32 | antifungal MICc (Trichophyton soudanense; in combination with 10-ZOL): 4 | antifungal MICc (Trichophyton soudanense; in combination with ZOL): 64 | antifungal MICc (Lomentospora prolificans [10]; in combination with ZOL): 512 | antifungal MICc ([11]; in combination with 10-ZOL): 64 | antifungal MICc (Epidermophyton floccosum [12]; in combination with 10-ZOL): 32 | antifungal MICc (Nannizzia gypsea; in combination with 10-ZOL): 64

CC[C@H](C)C[C@H](C)CCCCCCCCC(=O)N[C@H]1C[C@@H](O)[C@@H](NCCN)NC(=O)[C@@H]2[C@@H](O)CCN2C(=O)[C@H]([C@H](O)CCN)NC(=O)[C@H]([C@H](O)[C@@H](O)c2ccc(O)cc2)NC(=O)[C@@H]2C[C@@H](O)CN2C(=O)[C@H]([C@@H](C)O)NC1=O [CAS, caspofungin]
MIC / MEC (Mucor circinelloides): >16 µg/mL | MIC / MEC (Rhizopus oryzae): >16 µg/mL | MIC / MEC (Cryptococcus gattii [1]): 8 µg/mL (≈ 7.32 µM) | MIC / MEC (Fusarium oxysporum): >16 µg/mL | MIC / MEC (Lomentospora prolificans [13]): >16 µg/mL | MIC / MEC (Candida parapsilosis): 1 µg/mL (≈ 0.915 µM) | MIC / MEC (Aspergillus niger [14]): 4 µg/mL (≈ 3.66 µM) | MIC / MEC (Aspergillus terreus [2]): 2 µg/mL (≈ 1.83 µM) | MIC / MEC (Aspergillus lentulus [15]): 4 µg/mL (≈ 3.66 µM) | MIC / MEC (Aspergillus felis): 0.25 µg/mL (≈ 0.229 µM) | MIC / MEC (Aspergillus parafelis): 0.13 µg/mL (≈ 0.119 µM) | MIC / MEC [16]: 0.13 µg/mL (≈ 0.119 µM) | MIC / MEC (Epidermophyton floccosum [17]): 0.13 µg/mL (≈ 0.119 µM) | MIC / MEC (Paraphyton cookei): 0.25 µg/mL (≈ 0.229 µM) | antifungal MICc (Cryptococcus gattii [3]; in combination with 10-ZOL): 2 | antifungal MICc (Cryptococcus gattii [3]; in combination with ZOL): 16 | antifungal MICc (Cryptococcus tetragattii; in combination with 10-ZOL): 1 | antifungal MICc (Cryptococcus tetragattii; in combination with ZOL): 16 | antifungal MICc ([4]; in combination with 10-ZOL): 2 | antifungal MICc ([4]; in combination with ZOL): 8 | antifungal MICc (Fusarium solani [5]; in combination with 10-ZOL): 16 | antifungal MICc (Fusarium solani [5]; in combination with ZOL): 64 | antifungal MICc (Pichia kudriavzevii; in combination with 10-ZOL): 0.5 | antifungal MICc (Pichia kudriavzevii; in combination with ZOL): 0.5 | antifungal MICc (Candida tropicalis; in combination with 10-ZOL): 0.25 | antifungal MICc (Candida tropicalis; in combination with ZOL): 0.02 | antifungal MICc (Candida dubliniensis; in combination with 10-ZOL): 0.063 | antifungal MICc (Candida dubliniensis; in combination with ZOL): 0.01 | antifungal MICc (Aspergillus niger [6]; in combination with 10-ZOL): 2 | antifungal MICc (Aspergillus niger [6]; in combination with ZOL): 4 | antifungal MICc (Aspergillus terreus [7]; in combination with 10-ZOL): 2 | antifungal MICc (Aspergillus terreus [7]; in combination with ZOL): 2 | antifungal MICc (Aspergillus lentulus [8]; in combination with 10-ZOL): 4 | antifungal MICc (Aspergillus lentulus [8]; in combination with ZOL): 2 | antifungal MICc (Microsporum canis; in combination with 10-ZOL): 0.25 | antifungal MICc (Microsporum canis; in combination with ZOL): 0.125 | antifungal MICc (Nannizzia nana; in combination with 10-ZOL): 0.25 | antifungal MICc (Nannizzia nana; in combination with ZOL): 0.033 | antifungal MICc (Trichophyton tonsurans [9]; in combination with 10-ZOL): 2 | antifungal MICc (Trichophyton tonsurans [9]; in combination with ZOL): 0.25 | antifungal MICc (Trichophyton soudanense; in combination with 10-ZOL): 0.5 | antifungal MICc (Trichophyton soudanense; in combination with ZOL): 1 | MIC / MEC (Fusarium solani [18]): 16 µg/mL (≈ 14.6 µM) | MIC / MEC (Trichophyton tonsurans [19]): 0.5 µg/mL (≈ 0.457 µM) | antifungal MICc (Lomentospora prolificans [10]; in combination with 10-ZOL): 128 | antifungal MICc (Lomentospora prolificans [10]; in combination with ZOL): 64 | antifungal MICc ([11]; in combination with 10-ZOL): 0.125 | antifungal MICc ([11]; in combination with ZOL): 0.5 | antifungal MICc (Epidermophyton floccosum [12]; in combination with 10-ZOL): 0.125 | antifungal MICc (Epidermophyton floccosum [12]; in combination with ZOL): 0.25 | antifungal MICc (Nannizzia gypsea; in combination with 10-ZOL): 0.25 | antifungal MICc (Nannizzia gypsea; in combination with ZOL): 0.5
